The text below walks through data of patent US11802108B2, “Compounds for the modulation of cyclophilins function” (The University Court of The University of Edinburgh, priority 2018, dated 2023).

Data set [1] addresses T1, CypA (Homo sapiens (Human), UniProt P62937). Description: Isothermal titration calorimetry (ITC) binding to CypA. As to conditions: 25° C. As for the experimental part:
All ITC experiments for the ester series compounds were carried out at 25° C. on a MicroCal Auto iTC200 (GE Healthcare) instrument. The buffer used in the titrations of the compounds belonging to the ester series was 50 mM phosphate buffer, pH 6.5 and the concentration of DMSO was 2% v/v for all the compounds, unless otherwise stated in Table 51. Final compound solutions were heated to 65° C. and/or sonicated prior to the experiment. Each experiment consisted of an initial injection of 0.4 μL followed by nineteen 2 μL injections and in most of cases for these compounds, the “continue injections” protocol was used leaving the cell intact and performing a second series of titrations using the above protocol to achieve saturation. Control experiments were performed, where each compound was titrated into buffer and when small amount of heat was detected due to heat of dilution, it was subtracted when processing the data using a linear fit method. In all cases the first injection was omitted from the data processing. All data were analysed using the MicroCal PEAQ-ITC Analysis software.
The buffer used for these titrations was: PBS, 0.05% v/v P20 surfactant, 50 μM EDTA in presence of 2% v/v EtOH and the pH was set to 7.4.
A general note: Isothermal titration calorimetry measures the heat released or taken up as one component is titrated into another.

For data set [2], the target named is T1, CypA. Description: X-ray co-crystal structure with CypA. Also: key: Y: observed in cocrystal; N: not observed in cocrystal. The data set is classed as binding. To be noted: apo CypA crystals soaked with 5 mM ligand. As for the experimental part: Purified and his-tag-cleaved CypA was buffer-exchanged into PBS and concentrated to ˜29 mg ml^−1. For crystallisation 1 μL of protein was mixed with an equal volume of the well solution, consisting of 100 mM Tris-HCl pH8.0 and 20-22% v/v PEG 8000, and crystal formation came about after equilibration overnight in 6° C. by vapour diffusion using the hanging drop method over 1 mL of the same well solution. Apo CypA crystals were soaked overnight into different ligand solution consisting of 100 mM Tris-HCl pH 8.0, 35% w/v PEG 8000, 5% v/v Glycerol, 5% v/v DMSO and 5 mM ligand, before flash frozen into liquid nitrogen. X-ray data were collected at the Diamond synchrotron-radiation facility in Oxford-shire, England at 100K. Structures were solved by molecular replacement using DIMPLE from the CCP4i suite. Modelled structures were visualised and manually adjusted as needed using Coot10 and further refined using REFMAC5 from CCP4i.
FIG. 1A summarises the mode of binding of certain prior-art urea small molecule Cyp inhibitors.

Data set [3] has as its target T1, CypA. Briefly: Surface plasmon resonance (SPR) binding to His-CypA. To be noted: 25° C., triplicate. As for the experimental part:
(§1) SPR measurements were performed on a BIAcore T200 instrument (GE Healthcare). Ni^2+-nitrilotriacetic acid (NTA) sensor chips, 1-ethyl-3-(3-[…]) carbodiimide hydrochloride (EDC) and Nhydroxysuccinimide (NHS) were purchased from GE Healthcare.
(§2) Pure His-cyclophilins were immobilized and covalently stabilized on the NTA sensor chip according to the protocol described in Thermo-kinetic analysis space expansion for cyclophilin-ligand interactions—identification of a new nonpeptide inhibitor using Biacore T200.
(§3) Single cycle kinetic titration binding experiments were performed using SPR in triplicate at 25° C. […] The sensor surface was regenerated between experiments by dissociating any formed complex in running buffer for at least 1,200 seconds.
(§4) Kinetic titration binding experiments were performed in triplicate at 25° C. […] The sensor surface was regenerated between experiments by dissociating any formed complex in running buffer for at least a further 600 seconds.
Background: Surface plasmon resonance follows binding to a sensor surface in real time, without labels.

Data set [4] has as its target CypB (Homo sapiens (Human), UniProt P23284). Description: Surface plasmon resonance (SPR) binding to His-CypB. To be noted: 25° C., triplicate. As to the method:
as §3, §4

In data set [5] the target is CypD (Homo sapiens (Human), UniProt P30405). Description: Surface plasmon resonance (SPR) binding to His-CypD. As to conditions: 25° C., triplicate. As for the experimental part:
as §1, §2, §3, §4

Data set [6] relates to MDA-MB-231 cells. Description: Growth inhibition (GI50) of MDA-MB-231 cells, IncuCyte imaging. As to conditions: Homo sapiens; MDA-MB-231, 120 hours imaging. The data set is classed as cell-based. As to the method: (§5) The latter medium with 2000 U/mL IL-2 was used for NK92 cell killing assays.
(§6) To determine the direct effect of the compounds on cell proliferation, cells were seeded at a density of 500 cells per well in cell culture medium in 384-well cell culture plates and allowed to adhere overnight (about 16 hours), incubated in a humidified atmosphere with 5% CO2. Subsequently, cell culture medium was refreshed, supplemented with Draq 7 (3 μM final concentration) and test compound at the indicated concentrations with three wells being treated for each condition tested. Cells were then returned to the cell culture incubator and imaged with a 10× objective every 3 hours for 120 hours using an IncuCyte ZOOM microscope from Essen Bioscience.
(§7) Using the IncuCyte ZOOM software, custom image analysis procedures were developed and applied for each cell line to determine cell confluency, cell number and number of dead cells over the time course of the experiment.
(§8) Statistical analyses in cell viability assays to compare the effect of compound treatment to treatment with vehicle were performed using GraphPad Prism 6 (2-way ANOVA with Bonferroni correction post hoc).

In data set [7] the test system is MDA-MB-231 cells. Description: Cytotoxicity (cell death, Draq7) in MDA-MB-231 cells. The class given is cell-based. As to the method: as §5, §6, §7, §8
Data set [8] has as its system IMR-90 cells. Description: Cytotoxicity (cell death, Draq7) in IMR-90 cells. The data set is classed as cell-based. As to the method: as §5, §6, §7, §8
The test system of data set [9] is MDA-MB-231 cells in presence of NK92 cells. Description: NK92 immune cell killing of MDA-MB-231 cancer cells. The data set is classed as cell-based. To be noted: with NK92 cells. As for the experimental part: as §5
(§9) NK92 cells were then added at a density of 1000 cells per well and 10 μM test compound was added. Cells were imaged with a 10× objective every 3 hours for 120 hours using an IncuCyte ZOOM microscope from Essen Bioscience.
(§10) Apoptotic fraction of the population (number of nuclei with co-localized red and green fluorescence divided by total number of red nuclei in the population) and fold increase in number of red nuclei were determined at various time points.

Data set [10] concerns NK92 cells. Description: Proliferation of NK92 cells. The class given is cell-based. As for the experimental part: as §5, §9, §10

T1 sequence (P62937 whole entry): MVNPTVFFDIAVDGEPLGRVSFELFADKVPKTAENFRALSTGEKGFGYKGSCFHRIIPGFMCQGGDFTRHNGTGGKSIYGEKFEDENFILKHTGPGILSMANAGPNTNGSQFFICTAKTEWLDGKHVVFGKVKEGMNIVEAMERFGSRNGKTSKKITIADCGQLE
CypB, sequence (P23284 34-216): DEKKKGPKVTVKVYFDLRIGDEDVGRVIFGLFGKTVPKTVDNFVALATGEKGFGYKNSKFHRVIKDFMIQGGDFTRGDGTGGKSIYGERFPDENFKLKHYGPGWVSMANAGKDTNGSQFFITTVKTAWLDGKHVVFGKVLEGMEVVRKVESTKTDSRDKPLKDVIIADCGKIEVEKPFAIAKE
CypD, sequence (P30405 30-207): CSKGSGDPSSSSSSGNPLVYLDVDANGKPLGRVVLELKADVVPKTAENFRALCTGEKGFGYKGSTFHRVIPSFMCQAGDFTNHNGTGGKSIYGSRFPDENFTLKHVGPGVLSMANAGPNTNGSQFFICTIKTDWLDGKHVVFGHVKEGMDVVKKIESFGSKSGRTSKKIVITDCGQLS

By Kd is commonly meant the free concentration of one partner at which half of the binding sites on the other are occupied at equilibrium, for simple one-to-one binding. A lower Kd goes with a tighter complex. As a reminder, the GI50 is the concentration at which growth is held to half of that of the control. A high value points to less potent growth inhibition. For `C#CCN(Cc1ccc(N)cc1)C(=O)NCC(=O)N1CCCC1c1ccccc1Br.Cl` (centres unmarked) [Compound 1, 1-[(4-aminophenyl)methyl]-3-{2-[2-(2-bromophenyl)pyrrolidin-1-yl]-2-oxoethyl}-1-(prop-2-yn-1-yl)urea hydrochloride], the Kd came to 2000 ± 1000 nM in [1], 3200 ± 1300 nM in data set [3], 1400 ± 400 nM in data set [4] and 200 ± 100 nM in data set [5]. For the same compound, the “CypA X-ray co-crystal” value in data set [2] is “Y”. In addition, it took 5100 ± 900 nM to inhibit growth in data set [6] by half (GI50). In addition, the “Toxicity MDA-MB-231 @10 μM” value in data set [7] was “N”. Further, in data set [8], the “Toxicity IMR-90 @10 μM” value is “N”. Also, the “Apoptotic fraction of the MDA-MB-231 population in the presence of NK92 cells after 72 h @ 10 μM” value in data set [9] is listed as 0.64 ± 0.03. In addition, the “Fold increase MDA-MB-231 cells in presence of NK92 cells after 72 h @ 10 μM” value in [9] amounted to 2.0 ± 0.3. For the same compound, in data set [10], the “Fold increase in NK92 cells after 72 h @ 10 μM” value is given as 4.3 ± 0.7.
